Patent publication US4472582A, “3,5-Disubstituted-4'-(9-acridinylamino)-methane-sulfon-m-anisidide compounds having antitumor properties” (Development Finance Corporation of New Zealand, priority 1979, dated 1984)

Columns and labels:
L1210 leukemia = settings: in words, literature; cited from earlier work
poly. dGC = experiment: Drug-DNA binding, poly.dGC (GC)
Text: (§1) CT, AT and GC=are relative, inverse measures of compound--DNA binding for calf thymus DNA (CT); poly.dAT (AT) and poly. dGC (GC). (B. C. Baguley and E. M. Falkenhaugh, Nucleic Acids Res., 5, 161-171 (1978), B. F. Cain, B. C. Baguley and W. A. Denny, J. Med. Chem., 21, 658-668 (1978)).

L1210 leukemia (ip) = experiment: Antileukemic screen, L1210 tumour ip, drug ip qd 1-5; format: in vivo, mice (C3H/DBA2 F1 hybrids); design: LD10 / D40 (drug dose necessary to provide 40% ILS): unit not given here; settings: for ILS Observed: L1210-ip, qd 1-5, Table III; for ILS (increase in life span at the LD10) / LD10 / D40 (drug dose necessary to provide 40% ILS): Tumour L1210-ip, Table II; for ILS (increase in life span at the LD10): Strain F1, Schedule qd 1-5, at LD10; for LD10: Strain F1, Schedule qd 1-5, drug ip; for D40 (drug dose necessary to provide 40% ILS): Strain F1, Schedule qd 1-5; for Antitumour activity in leukemic animals / Dose potency: in words
Text: (§2) In initial screening a standard drug administration schedule has been employed (ip, qd 1-5) and mice (C3 H/DBA2 F1 hybrids) bred in the laboratory, receive a standard tumor inoculum of 10^5 L1210 cells ip on day 0. After range finding experiments, an LD10 dose has then been derived employing doses separated by 0.05 log.dose units, an acceptable soluble drug formulation (B. F. Cain, R. N. Seelye and G. J. Atwell, J. Med. Chem., 17, 922-930 (1974)) and groups of six tumored mice at each dose level. Deaths occuring before day 8 have been taken as resulting from drug toxicity. From the linear regression relating percent probit-mortality and the logarithms of the corresponding doses, an LD10 value has been derived. Profiles of antileukemic activity have been obtained employing doses separated by 0.09 log.dose intervals. Significant percentage increases in life span of leukemic animals, obtained at and below the LD10 dose, have been linearly correlated with the logarithms of the corresponding doses. The increase in life span (ILS) specified by the life extension-log.dose regression line at the measured LD10 provides a representative measure of antileukemic effectiveness at a standard host load in toxicity (W. A. Denny and B. F. Cain, J. Med. Chem., 21, 430-437 (1978)). For congener selection ILS has been employed as a measure of factor (1) above and LD10 for factor (2). Desirable drug pharmacokinetic properties (factor (3)) have been screened for by employing standard ip drug administration and implanting tumor more remotely; either subcutaneously (sc) or intracerabrally (ic) (B. F. Cain and G. J. Atwell Europ J. Cancer, 10, 539 549 (1974), B. F. Cain and G. J. Atwell, J. Med. Chem., 19 1409-1416 (1976)).
(§3) ILS and LD10=as defined above.
(§4) D40=the drug dose necessary to provide 40% ILS in standard L1210 assays.

[1] = Lipophilic-hydrophilic balance by reversed phase chromatography; format: physicochemical; settings: linearly related to 1-octanol/H2O partition coefficients
Text: Rm =a measure of the compound's lipophilichydrophilic balance from reversed phase chromatography. Rm is linearly related to partition coefficients obtained in the 1-octanol/H2 O system.

[2] = Water solubility / ease of formulation; format: physicochemical; settings: in words
[3] = Basic pKa measured spectrophotometrically; format: physicochemical; settings: 20% aqueous dimethylformamide, spectrophotometric; read-out: pK (basic pKa)
poly.dAT = experiment: Drug-DNA binding, poly.dAT (AT)
Text: as §1

[4] = tested on: Ames bacterial tester strains TA98, TA100, TA1537; format: cell-based
Text: As clinical cancer chemotherapy improves, and patients live symptom free for longer intervals, it is obviously important that the agents employed are not carcinogenic and capable of disease re-induction.

[5] = tested on: TA1537 strain of Salmonella typhimurium; experiment: Mutagenicity assay in TA1537 strain; settings: for Mutagenicity D50: Salmonella typhimurium TA1537; for Mutagenicity M50 (percentage mutation frequency at the D50 (×10^4)): Salmonella typhimurium TA1537, at the D50
Text: The quantitative measures of mutagenicity employed in the present studies are those detailed in L. R. Ferguson and W. A. Denny, J. Med. Chem., 22, 251-255 (1979) of early QSAR developed in this area.
D50 and M50=quantitative measures derived from mutagenicity assays in TA1537 strain of Salmonella typhimurium, defined in L. R. Ferguson and W. A. Denny, J. Med. Chem., 22, 251-255 (1979). (The values of M50 are percentage mutation frequencies at the D50 (×10^4).)

L1210 leukemia (ic) = experiment: Intracerebrally implanted L1210; format: in vivo, mice; settings: in words
Text: as §2

L1210 leukemia (sc) = experiment: Antileukemic screen, L1210 tumour sc, drug ip qd 1-5; format: in vivo, mice (C3H/DBA2 F1 hybrids); design: LD10 / D40 (drug dose necessary to provide 40% ILS): unit not given here; settings: for ILS (increase in life span at the LD10): Strain F1, Schedule qd 1-5, at LD10, Table II; for LD10: Strain F1, Schedule qd 1-5, drug ip, Table II; for D40 (drug dose necessary to provide 40% ILS): Strain F1, Schedule qd 1-5, Table II
Text: as §2, §3, §4

calf thymus DNA = experiment: Drug-DNA binding, calf thymus DNA (CT)
Text: as §1

[6] = tested on: experimental tumour systems; settings: in words, literature; cited from earlier work

SMILES | Antitumour activity in L1210 leukemia (L1210 leukemia) | GC (relative, inverse measure of compound-DNA binding) (poly. dGC) | ILS Observed (L1210 leukemia (ip)) [%] | ILS (increase in life span at the LD10) (L1210 leukemia (ip)) [%] | LD10 (L1210 leukemia (ip)) | D40 (drug dose necessary to provide 40% ILS) (L1210 leukemia (ip)) | Antitumour activity in leukemic animals (L1210 leukemia (ip)) | Dose potency (L1210 leukemia (ip)) | Rm (reversed-phase chromatographic lipophilicity) [1] | Ease of formulation [2] | pKa [3] | AT (relative, inverse measure of compound-DNA binding) (poly.dAT) | Direct mutagenicity [4] | Mutagenicity D50 [5] | Mutagenicity M50 (percentage mutation frequency at the D50 (×10^4)) [5] | Inhibition of intra-cerebrally implanted L1210 (L1210 leukemia (ic)) | ILS (increase in life span at the LD10) (L1210 leukemia (sc)) [%] | LD10 (L1210 leukemia (sc)) | CT (relative, inverse measure of compound-DNA binding) (calf thymus DNA) | D40 (drug dose necessary to provide 40% ILS) (L1210 leukemia (sc)) | also measured
CS(=O)(=O)Nc1ccc(Nc2c3ccccc3nc3ccccc23)cc1 [AMSA, 4'-(9-acridinylamino) methanesulfonanilide] | high antitumour activity | – | – | – | – | – | – | – | – | – | – | – | – | – | – | – | – | – | – | – | –
CNC(=O)c1cccc2c(Nc3ccc(NS(C)(=O)=O)cc3OC)c3ccc(C)cc3nc12 [Compound 1] | – | 2.76 | 200 | 200 | 12 | 3 | unusually high antitumour activity in leukemic animals | good dose potency | 0.32 | easily formulable | 6.6 | 4.74 | lack significant mutagenic activity | 15.3 | 1.0 % (×10^4) | inhibit intra-cerebrally implanted L1210 | 30 | 10 | 5.53 | – | Antitumour activity in leukemic animals (L1210 leukemia (ip); listed as 3-methyl-5-methylcarboxamido): high experimental antitumor activity
COc1cc(NS(C)(=O)=O)ccc1Nc1c2ccc(C)cc2nc2c(C(=O)NCC(N)=O)cccc12 [Compound 2] | – | 1.84 | 200 | 200 | 120 | 10 | unusually high antitumour activity in leukemic animals | – | -0.32 | – | 6.58 | 6.53 | – | 27.6 | 0 % (×10^4) | – | 50 | 120 | 6.53 | 60 | –
COc1cc(NS(C)(=O)=O)ccc1Nc1c2ccc(Cl)cc2nc2c(C(=O)NCC(N)=O)cccc12 [Compound 3] | – | 4.91 | 120 | 120 | 300 | 25 | – | – | -0.23 | – | 5.71 | – | – | 12.4 | 0 % (×10^4) | – | 65 | 330 | – | 175 | –
CNC(=O)c1ccc2c(Nc3ccc(NS(C)(=O)=O)cc3OC)c3cccc(C)c3nc2c1 [Compound 4] | – | – | 150 | 150 | 20 | 1 | – | good dose potency | -0.17 | easily formulable | 6.64 | 3.2 | lack significant mutagenic activity | 43.8 | 0.16 % (×10^4) | inhibit intra-cerebrally implanted L1210 | 100 | 25 | – | 15 | Antitumour activity in leukemic animals (L1210 leukemia (ip); listed as 5-methyl-3-methylcarboxamido): high experimental antitumor activity
COc1cc(NS(C)(=O)=O)ccc1Nc1c2ccccc2nc2ccccc12 [m-AMSA, 4'-(9-acridinylamino)-methanesulfon-m-anisidide] | highly effective in treating L1210 leukemia | – | – | 111 | 9 | 2.5 | – | – | – | – | – | – | – | – | – | does not | 45 | 10 | – | 8.0 | Activity in other experimental tumour systems [6]: has shown promise in a number of other experimental tumour systems
